The values below come from US20070196850A1, “Identification of aging genes through large-scale analysis” (priority 2006, published 2007).

Like-named read-outs stand apart in the source and are kept apart here.

The test concerns yeast cells (BY4742). The class given is cell-based, Saccharomyces cerevisiae. The method, then:
FIG. 2 illustrates replicative life span (“RLS”) analysis in yeast. […] A mother cell is a yeast cell that has produced one or more daughter cells. […] The total number of mitotic divisions completed by a given mother cell is the replicative life span for that mother cell. One indicator of senescence in yeast is the inability to produce daughter cells.
A large-scaled, life-span analysis is performed as follows. Approximately three days before initiating a life-span-determination assay, a set of 95 strains contained in a yeast alpha-haploid-deletion collection (Open Biosystems), is transferred to a 96-well plate containing YPDagar using a FX robot, so that each strain occupies one well of a 96-well plate. Concurrently, “wildtype” reference cells (BY4742) are plated within an empty well of the 96-well test plate. For 1-2 days, plated cells are allowed to grow on rich medium, such as YPD, at 30° C. Cells are patched onto life-span-measuring plates containing YPD so that approximately 12 strains are plated per plate the night, or approximately 12 hours, before initiating life-span analysis. A life-span experiment is initiated by gridding a region of the plate distal to growing cells, to which 5 cells of each strain of 12 strains are transferred by micromanipulation. Cells are incubated for two hours at 30° C. Then, virgin daughter cells of each deletion variant cell are selected, and original mother cells are removed. Such virgin daughter cells are monitored for de novo production of daughters at 2-3 hour intervals. Produced daughters are individually removed, and tabulated. Mother cells are placed back at 30° C. to allow continued growth. During evening hours, cells are moved to 4° C. so that the cell division rate is reduced to one cell division per evening. The following day, cells are placed at 30° C. to resume growth. This process is continued for a period of time, approximately two weeks, to allow cells of each variant strain to exhaust its proliferative potential. The total number of daughter cells produced by each mother variant cell is tabulated, and determined RLS values are entered into a database.
To perform the life span experiment, 15 μg/mL diazaborine A was added to standard yeast life span plates (YPD). Cells are patched to these plates the night prior to initiation of the life span. The next morning, individual cells were moved to a location on the plate distant from the patch and allow them to divide. The first daughters produced by each mother cell are used to initiate the life span experiment. Subsequently, each daughter cell that these cells produce is removed with a micromanipulator and tabulations are kept.

For the compound `CS(=N)(=O)CC[C@H](N)C(=O)O` (stereo partly shown) [MSX, methionine sulfoximine], the “replicative life span in yeast” value (exposure of yeast cells to MSX) is reported as “extends replicative life span”. The life span entry by setting is: (yeast, 50 uM) “significantly increases life span”; (yeast, 100 uM) “significantly increases life span”; (yeast, 1 mM) “significantly increases life span”; (yeast, 2.5 mM) “significantly increases life span”. For the same compound, the “increase in mean replicative life span (maximal life span extension)” value (yeast, 1 mM, preliminary experiments) is given as 25-30%.
For `C[C@@H]1C[C@@H]([C@H](O)CC2CC(=O)NC(=O)C2)C(=O)[C@@H](C)C1` [cycloheximide], the “life span of yeast cells on drug treatment” value (yeast cells treated with drug vs no drug control) is reported as “does not increase life span”.
